“And” between values parts separate entries of the source, which are not always exact repeats. Equal entries are not always repeated.

This is an account of results in US20220160712A1, “METHODS OF TREATING RHEUMATOID ARTHRITIS AND FOR PREDICTING THE RESPONSE TO METHOTREXATE” (CHAN ZUCKERBERG BIOHUB, INC., priority 2020, published 2022).

In series [1] the test system is C. symbiosum. Put plainly: RNA-seq after MTX treatment. As to conditions: MTX 100 μg/ml, 30 minutes; padj<0.2, DESeq. In kind it is cell-based, Clostridium symbiosum. On the procedure: Genomes were obtained from NCBI's GenBank Assembly database. Culture media was composed of BHI+and allowed to equilibrate in an anaerobic environment prior to use. Briefly, bacteria were cultured in BHI+at 37° C. in an anaerobic chamber. Cultures for each isolate were grown to mid-exponential (achieving an OD600˜0.5), aliquoted into triplicates, treated for 30 minutes with either DMSO or MTX 100 μg/ml, and then removed from the anaerobic chamber. […]
Total RNA was subjected to rRNA depletion using Ribo-Zero Bacterial rRNA Depletion (Illumina, catalog #: MRZB12424), following the manufacturer's protocol. […] For each sample, fastq files are available in NCBI's Sequence Read Archive (SRA), accession number PRJNA656577.
Reads were trimmed using Trimmomatic (v0.32) (Bolger, A. M., et al., (2014), Bioinformatics 30, 2114-2120), and ribosomal reads were removed using SortMeRNA (v2.1) (Kopylova, E., et al., (2012), Bioinformatics 28, 3211-3217). Reads were mapped to reference genomes using Bowtie2 (Langmead, B., and Salzberg, S. L. (2012), Nat Methods 9, 357-359) using the following options: -q, —met file, —end-to-end, —sensitive. […]

Series [2] in a line: Predicted concentration of MTX in the gastrointestinal (GI) tract. Set-up: species or system human. As to conditions: for predicted concentration of MTX in the proximal GI tract: RA oral dose 25 mg divided by 250 ml. On the procedure:
The predicted concentration of MTX in the proximal GI tract was estimated by taking the oral dose used for rheumatoid arthritis (25 mg) and dividing it by 250 ml Dahlgren, D., and Lennernas, H. (2019), Pharmaceutics 11, 411; Dressman, J. B., et al., (1985), J Pharm Sci 74, 588-589; Shekhawat, P.B., and Pokharkar, V. B. (2017), Acta Pharm Sin B 7, 260-280), giving a concentration of 100 μg/ml or 220 μM. Further refinement of this estimate was done based on variations in the absorption of oral MTX in the proximal intestine (Grim, J., et al., (2003), Clin Pharmacokinet 42, 139-151), where it is estimated that 10-70% of the dose is not absorbed and instead delivered to the distal GI tract in RA patients. Thus, the estimated range of MTX in the GI tract was calculated to be 10-70 μg/ml with 100 μg/ml being the highest predicted concentration (prior to absorption by the host). When considering the doses used for cancer therapy (50 mg/day of oral MTX), the predicted range is 20-140 μg/ml with 200 μg/ml being the highest dose. MTX can also be given intravenously (IV) or intrathecally for the treatment of cancer (Treon, S. P., and Chabner, B. A. (1996), Clin Chem 42, 1322-1329), and is typically given at much higher doses, including as high as 800-1000 mg IV over 24 hours for the treatment of cancers such as lymphoma or acute lymphoblastic leukemia. Assuming that 30% of this is enterohepatically circulated et al., (1982), Cancer Res 42, 1279-1282), then between 240 and 300 mg would enter the GI tract, and the predicted concentration in the GI tract would be between 960-1200 μg/ml.

The mark [3] stands for this setting: cancer therapy, 50 mg/day oral MTX.

Consider `CN(Cc1cnc2nc(N)nc(N)c2n1)c1ccc(C(=O)N[C@@H](CCC(=O)O)C(=O)O)cc1` [MTX, methotrexate], for which the “number of differentially expressed genes” value in series [1] stood at 55 genes. The “predicted concentration in the GI tract” value in series [2] (800-1000 mg IV over 24 hours, assuming 30% enterohepatically circulated) was 960 to 1200 µg/mL. Besides, the “estimated concentration of MTX in the proximal gastrointestinal (GI) tract” value in series [2] (Example 2) was 22-220 μM and 10-100 μg/ml. In addition, the “estimated range of MTX in the GI tract” value in series [2] (RA dose, 10-70% of the dose not absorbed) was 10 to 70 µg/mL. Further, in series [2], the “predicted concentration of MTX in the proximal GI tract” value was 220 µM. In series [2] (highest, prior to absorption), the “predicted concentration of MTX in the proximal GI tract” value is 100 µg/mL. In series [2] (setting [3]), the “highest predicted concentration of MTX in the GI tract” value is 200 µg/mL and the “predicted range of MTX in the GI tract” value was 20 to 140 µg/mL.
